The record followed here is ChEMBL document CHEMBL1201862, “PubChem BioAssay data set” (2004).

What all share (experiment): NCI anticancer screen, dose series, 48 h
In assay [1] the test system is OVCAR-5.
For assay [2], the system named is SF-268.
The test system of assay [3] is ACHN.
Assay [4] relates to KM12.
Assay [5] concerns NCI-H522.
In assay [6] the test system is SR.
In assay [7] the test system is SK-MEL-28.
For assay [8], the system named is COLO 205.
Assay [9] relates to TK-10.
Assay [10] relates to UACC-62.
Assay [11] has as its system UACC-257.
Assay [12] relates to RPMI-8226.
Assay [13] has as its system SW-620.
The test system of assay [14] is SK-MEL-2.
Assay [15] relates to SNB-19.
Assay [16] deals with SF-539.
The test system of assay [17] is Malme-3M.

Each structure is given as a SMILES string.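 Protocol summary: plate cells (96-well), add compound at 5 concentrations, incubate 48 h, interpolate endpoints linearly. Abbreviation: GI50, concentration required for 50% inhibition of growth.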 Calls of active or inactive are those of the source. Cut-off read from the data, not from the text of the source: active = GI50 up to about 1.1 µM and inactive = higher.

Consider `CCCCCCC(O)CC[C@H]1CCC[C@@H](C)N1` (some centres undefined), for which the GI50 is > 10 µM (inactive) in assay [1]; > 31.6 µM (inactive) in assay [2]; > 100 µM (inactive) in assay [3]; > 10 µM (inactive) in assay [4]; > 100 µM (inactive) in assay [5]; > 100 µM (inactive) in assay [6]. The GI50 was > 31.6 µM (inactive) in assay [7]; > 31.6 µM (inactive) in assay [8]; > 100 µM (inactive) in assay [9]; 72.6 µM (inactive) in assay [10]; > 10 µM (inactive) in assay [11]; > 100 µM (inactive) in assay [12]. Also, the GI50 in assay [13] is > 100 µM (inactive); in assay [14], > 10 µM (inactive); in assay [15], > 10 µM (inactive); in assay [16], > 100 µM (inactive); in assay [17], > 100 µM (inactive).

Regarding `O=S1(=O)OCCOS(=O)(=O)C1Cc1ccccc1`, the GI50 in assay [1] was > 100 µM (inactive); in [2], 39.1 µM (inactive); in assay [3], 51.5 µM (inactive); in assay [4] it was > 100 µM (inactive); in assay [5], 45.2 µM (inactive); in assay [6], 28.8 µM (inactive). In addition, the GI50 is > 100 µM (inactive) in [7]; 19.1 µM (inactive) in assay [8]; > 100 µM (inactive) in assay [9]; 40.8 µM (inactive) in assay [10]; 53.6 µM (inactive) in assay [11]; 18.7 µM (inactive) in assay [12]. The GI50 in [13] is 65 µM (inactive); in assay [15], 70.3 µM (inactive); in [16], 26.5 µM (inactive); in [17], > 100 µM (inactive).

Consider `CC1=CC(N2C(=O)C(C)=CC2O)NC1=O` (centres undefined), for which the GI50 in assay [1], in assay [2], in assay [4], in assay [5], in assay [6] and in assay [7] was > 100 µM (inactive) in each case. The GI50 in assay [8], in assay [9], in assay [11], in [13], in assay [14] and in assay [15] was > 100 µM (inactive) throughout. The values for the GI50 in assay [16] and in [17] were > 100 µM (inactive) and 45.8 µM (inactive), respectively.

With `Cc1cc(N(CCC#N)CCC#N)ccc1/C=C1/CN(N2C(=O)/C(=C/c3ccc(N(CCC#N)CCC#N)cc3C)N=C2c2ccccc2)C(c2ccccc2)=N1`, the GI50 in [1], in assay [2], in [3], in assay [4], in [5] and in assay [6] was > 100 µM (inactive) throughout. Moreover, the GI50 was > 100 µM (inactive) in assay [7]; > 100 µM (inactive) in assay [8]; 26.5 µM (inactive) in assay [9]; > 100 µM (inactive) in assay [10]; > 100 µM (inactive) in [11]; > 100 µM (inactive) in [13]. Moreover, the GI50 in assay [15] is 41 µM (inactive); in assay [16], 99.5 µM (inactive); in [17] it was > 100 µM (inactive).

As for `COC(=O)C(=O)C(C(C)=O)C(=O)NCc1ccc(OC)c(OC)c1` (centres undefined), the GI50 in assay [1], in assay [2], in assay [3], in assay [4], in assay [5] and in assay [6] was > 100 µM (inactive) each time. Also, the GI50 in assay [7] was > 100 µM (inactive); in assay [8], > 100 µM (inactive); in assay [9], > 100 µM (inactive); in [10] it was > 100 µM (inactive); in [11] it was > 100 µM (inactive); in [13], 40.5 µM (inactive). The GI50 in assay [14], in assay [15], in assay [16] and in [17] was > 100 µM (inactive) in each case.

Take `CCC(=O)C(C)C(=O)C(=O)C(=O)OC` (centres undefined): the GI50 in [1], in assay [2], in assay [3], in [4], in assay [5] and in assay [6] was > 100 µM (inactive) throughout. Moreover, the GI50 was > 100 µM (inactive) in assay [7]; > 60.5 µM (inactive) in [8]; > 100 µM (inactive) in [9]; > 100 µM (inactive) in assay [10]; > 94.6 µM (inactive) in assay [11]; > 100 µM (inactive) in assay [12]. Also, the GI50 in assay [13] is > 26.2 µM (inactive); in assay [14] it was > 100 µM (inactive); in assay [15], > 100 µM (inactive); in assay [16], > 100 µM (inactive); in assay [17], > 100 µM (inactive).

Consider `CCCOc1ccc(/C(Cl)=C(\C=O)c2ccc(OC)c(OC)c2)cc1OCCC`, for which the GI50 in assay [1] was 39.3 µM (inactive); in assay [2] it was 3.73 µM (inactive); in assay [3], 9.31 µM (inactive); in assay [4] it was 8.61 µM (inactive); in [5] it was 2 µM (inactive); in assay [6] it was 2.52 µM (inactive). Further, the GI50 in [7] was 7.59 µM (inactive); in assay [8], 4.22 µM (inactive); in [9] it was 28.1 µM (inactive); in assay [10], 3.52 µM (inactive); in assay [11], 11 µM (inactive); in assay [12] it was 2.7 µM (inactive). The GI50 in [13] was 5.13 µM (inactive); in [14], 11.6 µM (inactive); in assay [15], 23.1 µM (inactive); in assay [16], 14.1 µM (inactive); in [17] it was 0.804 µM (active).

As for `COC(=O)CCSC(=O)Nc1ccc(/N=N/c2ccccc2)cc1`, the GI50 in assay [1] is 71.1 µM (inactive); in assay [2], > 100 µM (inactive); in [3] it was 29 µM (inactive); in assay [4], 31.1 µM (inactive); in assay [6] it was 30.6 µM (inactive); in assay [7] it was > 100 µM (inactive). The GI50 in assay [8] is 20.3 µM (inactive); in [9], 61.8 µM (inactive); in [10], 34.4 µM (inactive); in assay [11], 56.5 µM (inactive); in [12], 49.1 µM (inactive); in [13], > 100 µM (inactive). Also, the figures for the GI50 in assay [15], in [16] and in assay [17] were 32.1 µM (inactive), > 100 µM (inactive) and > 100 µM (inactive), respectively.

Turning to `Brc1ccc2ns[s+]c2c1`, the GI50 was 2.58 µM (inactive) in assay [2]; 0.897 µM (active) in assay [3]; 3.79 µM (inactive) in assay [4]; 4.79 µM (inactive) in assay [5]; 4.36 µM (inactive) in assay [6]; 11.9 µM (inactive) in [7]. Also, the GI50 in [8] was 4.91 µM (inactive); in [9], 5.28 µM (inactive); in assay [10] it was 0.446 µM (active); in [11] it was 14.9 µM (inactive); in assay [12], 4.71 µM (inactive); in [13], 8.63 µM (inactive). Besides, the GI50 in [14] was 6.75 µM (inactive); in assay [15], 29.9 µM (inactive); in assay [16], 4.29 µM (inactive); in assay [17] it was 33.5 µM (inactive).

For the compound `CC1(C)OC2C(=O)OC(COCc3ccccc3)C2O1` (centres undefined), the GI50 in assay [1] is > 100 µM (inactive); in assay [2], > 100 µM (inactive); in assay [3], > 100 µM (inactive); in assay [4], > 100 µM (inactive); in assay [6], 78.9 µM (inactive); in assay [7], > 100 µM (inactive). The GI50 in [8], in assay [9], in [10], in assay [11], in assay [12] and in assay [13] was > 100 µM (inactive) in each case. The GI50 in [14], in [16] and in assay [17] was > 100 µM (inactive) throughout.

Regarding `CN/N=C(\C(=O)Nc1ccc(C(F)(F)F)cc1[N+](=O)[O-])C(c1cnc2ccc([N+](=O)[O-])cc2n1)[N+](=O)[O-]` (centres undefined), the GI50 in assay [1] is 22.9 µM (inactive); in assay [2] it was 73.3 µM (inactive); in assay [3] it was 21.8 µM (inactive); in assay [4] it was 48.6 µM (inactive); in [5] it was 6.84 µM (inactive); in assay [6] it was 27.7 µM (inactive). In addition, the GI50 was > 100 µM (inactive) in [7]; 28.6 µM (inactive) in [8]; > 10 µM (inactive) in assay [10]; 44.5 µM (inactive) in [11]; 38.2 µM (inactive) in assay [12]; 46 µM (inactive) in assay [13]. For the same compound, the GI50 in assay [14] is > 100 µM (inactive); in [15], 96.6 µM (inactive); in assay [16], 25.6 µM (inactive); in assay [17] it was > 100 µM (inactive).

Take `Cc1cc(CC(=O)NCCO)n(CCO)c(=O)c1`: the GI50 in assay [1], in assay [2], in assay [3], in [4], in [5] and in assay [6] was > 100 µM (inactive) throughout. The GI50 in assay [7], in [8], in [9], in assay [10], in assay [11] and in assay [13] was > 100 µM (inactive) in each case. The GI50 in [15], in assay [16] and in assay [17] was > 100 µM (inactive) throughout.
